# From ChEMBL document CHEMBL1201862, “PubChem BioAssay data set” (2004)
#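 The compound was tested at five concentrations on cells cultured in 96-well plates, with a 48-hour exposure period. GI50 marks 50% less growth.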 Active and inactive are the calls of the source. Cut-off read from the data, not from the text of the source: active = GI50 up to about 1.1 µM and inactive = higher. Where a SMILES comes first, the peptide text is derived from it. [ ]: non-standard residue; d: D form. The star is where a group is joined. Bn2Val = CC(C)[C@@H](C(=O)*)N(Cc1ccccc1)Cc1ccccc1; NHPiperonyl = c1cc2c(cc1CN*)OCO2; NMeV = CN[C@H](C(=O)O)C(C)C; dNMeA = CN[C@H](C)C(=O)O
# Legend:
# Assay in all cases: NCI-60 cell line screen, 48 h
# PC-3 = system: PC-3
# SK-OV-3 = system: SK-OV-3
# SNB-19 = system: SNB-19
# EKVX = system: EKVX
# M14 = system: M14
# UACC-257 = system: UACC-257
# COLO 205 = system: COLO 205
# KM12 = system: KM12
# MDA-MB-231 = system: MDA-MB-231
# A549 = system: A549
# MOLT-4 = system: MOLT-4
# OVCAR-8 = system: OVCAR-8
# NCI-H460 = system: NCI-H460
# 786-0 = system: 786-0
# UACC-62 = system: UACC-62
# Hs-578T = system: Hs-578T
# SK-MEL-5 = system: SK-MEL-5
# NCI-H23 = system: NCI-H23
# SW-620 = system: SW-620
# NCI-H522 = system: NCI-H522
Structure (SMILES),GI50 (PC-3),GI50 (SK-OV-3),GI50 (SNB-19),GI50 (EKVX),GI50 (M14),GI50 (UACC-257),GI50 (COLO 205),GI50 (KM12),GI50 (MDA-MB-231),GI50 (A549),GI50 (MOLT-4),GI50 (OVCAR-8),GI50 (NCI-H460),GI50 (786-0),GI50 (UACC-62),GI50 (Hs-578T),GI50 (SK-MEL-5),GI50 (NCI-H23),GI50 (SW-620),GI50 (NCI-H522)
NC(=O)c1ncn(C2CCC(CP(=O)(O)O)C2)c1N (stereo unspecified),> 100 µM (inactive),> 100 µM (inactive),> 100 µM (inactive),> 100 µM (inactive),> 100 µM (inactive),> 100 µM (inactive),> 100 µM (inactive),> 100 µM (inactive),> 100 µM (inactive),> 100 µM (inactive),> 100 µM (inactive),> 100 µM (inactive),> 100 µM (inactive),> 100 µM (inactive),> 100 µM (inactive),> 100 µM (inactive),> 100 µM (inactive),> 100 µM (inactive),> 100 µM (inactive),
COc1cc(Cn2c3c(c4c(CN(C)C)c(O)ccc42)C(=O)c2ccccc2C3=O)cc(OC)c1,21 µM (inactive),20.1 µM (inactive),18.7 µM (inactive),20 µM (inactive),17.2 µM (inactive),22.8 µM (inactive),25.5 µM (inactive),26.4 µM (inactive),17.7 µM (inactive),15.1 µM (inactive),24.4 µM (inactive),14.6 µM (inactive),17.7 µM (inactive),12.5 µM (inactive),23.1 µM (inactive),19.1 µM (inactive),11.9 µM (inactive),15.7 µM (inactive),18.7 µM (inactive),
CC12CCC(C(=O)O1)C(C)(C)O2 (stereo unspecified),> 100 µM (inactive),> 100 µM (inactive),> 100 µM (inactive),> 100 µM (inactive),> 100 µM (inactive),> 100 µM (inactive),,> 100 µM (inactive),> 100 µM (inactive),> 100 µM (inactive),> 100 µM (inactive),> 100 µM (inactive),> 100 µM (inactive),> 100 µM (inactive),> 100 µM (inactive),> 100 µM (inactive),,> 100 µM (inactive),> 100 µM (inactive),> 100 µM (inactive)
CN(C)CC(NC(NCS)C(=O)NCCNc1ccc(NCCNC(=O)C(NCS)NC(CN(C)C)OCCl)c2c1C(=O)c1c(O)ccc(O)c1C2=O)OCCl (stereo unspecified),0.256 µM (active),0.147 µM (active),0.0301 µM (active),0.228 µM (active),0.124 µM (active),0.929 µM (active),1.34 µM (inactive),0.172 µM (active),0.0547 µM (active),< 0.001 µM (active),,0.00377 µM (active),< 0.001 µM (active),0.0552 µM (active),0.0301 µM (active),0.243 µM (active),0.113 µM (active),0.00877 µM (active),0.00461 µM (active),
CC(C)(C)OC(=O)N1C(c2cccnc2)=CC[C@H]2C3CC=C(c4cccnc4)[C@@]3(C)CC[C@@H]21 (stereo partly specified),4.6 µM (inactive),4.54 µM (inactive),4.83 µM (inactive),2.11 µM (inactive),4.75 µM (inactive),3.23 µM (inactive),1.74 µM (inactive),4.06 µM (inactive),,3.37 µM (inactive),2.54 µM (inactive),4.02 µM (inactive),3.51 µM (inactive),4.86 µM (inactive),2.61 µM (inactive),5.64 µM (inactive),2.07 µM (inactive),3.4 µM (inactive),3.83 µM (inactive),2.92 µM (inactive)
Cc1ncc([N+](=O)[O-])n1CCNC(=O)CCCCn1ccnc1[N+](=O)[O-],> 100 µM (inactive),> 100 µM (inactive),> 100 µM (inactive),,> 100 µM (inactive),> 100 µM (inactive),36.3 µM (inactive),> 100 µM (inactive),> 100 µM (inactive),> 100 µM (inactive),> 100 µM (inactive),> 100 µM (inactive),> 100 µM (inactive),> 100 µM (inactive),> 100 µM (inactive),> 100 µM (inactive),> 100 µM (inactive),> 100 µM (inactive),> 100 µM (inactive),> 100 µM (inactive)
CC(C)[C@H](NC(=O)[C@H](C(C)C)N(Cc1ccccc1)Cc1ccccc1)C(=O)N(C)[C@H](C(=O)N1CCC[C@H]1C(=O)N(C)[C@H](C)C(=O)NCc1ccc2c(c1)OCO2)C(C)C (Bn2Val-V[NMeV]P[dNMeA]-NHPiperonyl),3.35 µM (inactive),41.6 µM (inactive),18.2 µM (inactive),4.98 µM (inactive),25.5 µM (inactive),5.56 µM (inactive),2.15 µM (inactive),4.83 µM (inactive),6.56 µM (inactive),15.6 µM (inactive),2.73 µM (inactive),8.61 µM (inactive),3.93 µM (inactive),13.6 µM (inactive),13 µM (inactive),39.1 µM (inactive),,16.8 µM (inactive),4.49 µM (inactive),14.7 µM (inactive)
